Results: patent US20230250066A1, “HERBICIDAL CINNOLINE DERIVATIVES” (SYNGENTA CROP PROTECTION AG, priority 2020, published 2023)

Experiments:
Assay type in all cases: in vivo
[1] = tested on: Ipomoea hederacea (IPOHE); test: Pre-emergence herbicidal test; details: 1000 g/ha, evaluated after 13 days
Zea mays (ZEAMX) [2] = test: Pre-emergence herbicidal test; details: 1000 g/ha, evaluated after 13 days
[3] = tested on: Ipomoea hederacea (IPOHE); test: Post-emergence herbicidal test; details: 1000 g/ha unless otherwise stated, evaluated after 13 days
Procedure, shortened: (§1)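 Scored 0–5 for percent damage (0=0%, 5=81-100%) 13 days after spraying, typically at 1000 g/ha in acetone/water (50:50) plus 0.5% Tween 20. Post-emergence plants treated at 8 days old, grown at 24° C/16° C day/night, 14 h light, 65% humidity, watered twice daily.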

[4] = tested on: Abutilon theophrasti (ABUTH); test: Post-emergence herbicidal test; details: 1000 g/ha unless otherwise stated, evaluated after 13 days
Procedure, shortened: as §1

Setaria faberi (SETFA) [5] = test: Post-emergence herbicidal test; details: 1000 g/ha unless otherwise stated, evaluated after 13 days
Procedure, shortened: as §1

[6] = tested on: Echinochloa crus-galli (ECHCG); test: Post-emergence herbicidal test; details: 1000 g/ha unless otherwise stated, evaluated after 13 days
Procedure, shortened: as §1

Zea mays (ZEAMX) [7] = test: Post-emergence herbicidal test; details: 1000 g/ha unless otherwise stated, evaluated after 13 days
Procedure, shortened: as §1

[8] = tested on: Amaranthus retoflexus (AMARE); test: Post-emergence herbicidal test; details: 1000 g/ha unless otherwise stated, evaluated after 13 days
Procedure, shortened: as §1

[9] = tested on: Echinochloa crus-galli (ECHCG); test: Pre-emergence herbicidal test; details: 1000 g/ha, evaluated after 13 days
[10] = tested on: Abutilon theophrasti (ABUTH); test: Pre-emergence herbicidal test; details: 1000 g/ha, evaluated after 13 days
[11] = tested on: Amaranthus retoflexus (AMARE); test: Pre-emergence herbicidal test; details: 1000 g/ha, evaluated after 13 days
Setaria faberi (SETFA) [12] = test: Pre-emergence herbicidal test; details: 1000 g/ha, evaluated after 13 days

| Structure (SMILES) | percentage damage caused to the plant, five-point scale, IPOHE [1] | percentage damage caused to the plant, five-point scale, ZEAMX (Zea mays (ZEAMX) [2]) | percentage damage caused to the plant, IPOHE (five-point scale) [3] | percentage damage caused to the plant, ABUTH (five-point scale) [4] | percentage damage caused to the plant, SETFA (five-point scale) (Setaria faberi (SETFA) [5]) | percentage damage caused to the plant, ECHCG (five-point scale) [6] | percentage damage caused to the plant, ZEAMX (five-point scale) (Zea mays (ZEAMX) [7]) | percentage damage caused to the plant, AMARE (five-point scale) [8] | percentage damage caused to the plant, five-point scale, ECHCG [9] | percentage damage caused to the plant, five-point scale, ABUTH [10] | percentage damage caused to the plant, five-point scale, AMARE [11] | percentage damage caused to the plant, five-point scale, SETFA (Setaria faberi (SETFA) [12]) |
| --- | --- | --- | --- | --- | --- | --- | --- | --- | --- | --- | --- | --- |
| CS(=O)(=O)c1cccc2c1c(=O)c(C(=O)OCCCc1ccccc1)nn2-c1ccc(OC(F)(F)F)cc1 [Compound P84, 3-phenylpropyl 5-methylsulfonyl-4-oxo-1-[4-(trifluoromethoxy)phenyl]cinnoline-3-carboxylate] | 0 (0=0%) | 0 (0=0%) | 1 (1=10-20%) | 1 (1=10-20%) | 4 (4=61-80%) | 2 (2=21-40%) | 0 (0=0%) | 0 (0=0%) | 3 (3=41-60%) | 0 (0=0%) | 0 (0=0%) | 4 (4=61-80%) |
| COC(C)(C)CCOC(=O)c1nn(-c2ccc(OC(F)(F)F)cc2)c2cccc(S(C)(=O)=O)c2c1=O [Compound P85, (3-methoxy-3-methyl-butyl) 5-methysulfonyl-4-oxo-1-[4-(trifluoromethoxy)phenyl]cinnoline-3-carboxylate] | 0 (0=0%) | 0 (0=0%) | 0 (0=0%) | 1 (1=10-20%) | 4 (4=61-80%) | 3 (3=41-60%) | 1 (1=10-20%) | 1 (1=10-20%) | 4 (4=61-80%) | 0 (0=0%) | 0 (0=0%) | 4 (4=61-80%) |
| CC(C)(C)CCOC(=O)c1nn(-c2ccc(OC(F)(F)F)cc2)c2cccc(S(C)(=O)=O)c2c1=O [Compound P86, 3,3-dimethylbutyl 5-methylsulfonyl-4-oxo-1-[4-(trifluoromethoxy)phenyl]cinnoline-3-carboxylate] | 0 (0=0%) | 1 (1=10-20%) | 0 (0=0%) | 0 (0=0%) | 4 (4=61-80%) | 4 (4=61-80%) | 0 (0=0%) | 0 (0=0%) | 5 (5=81-100%) | 1 (1=10-20%) | 0 (0=0%) | 4 (4=61-80%) |
| CS(=O)(=O)c1cccc2c1c(=O)c(C(=O)OCCC1CCCCC1)nn2-c1ccc(OC(F)(F)F)cc1 [Compound P87, 2-cyclohexylethyl 5-methylsulfonyl-4-oxo-1-[4-(trifluoromethoxy)phenyl]cinnoline-3-carboxylate] | 1 (1=10-20%) | 1 (1=10-20%) | 0 (0=0%) | 1 (1=10-20%) | 1 (1=10-20%) | 1 (1=10-20%) | 0 (0=0%) | 1 (1=10-20%) | 1 (1=10-20%) | 1 (1=10-20%) | 0 (0=0%) | 3 (3=41-60%) |
| CC(C)CCOC(=O)c1nn(-c2ccc(OC(F)(F)F)cc2)c2cccc(S(C)(=O)=O)c2c1=O [Compound P88, isopentyl 5-methylsulfonyl-4-oxo-1-[4-(trifluoromethoxy)phenyl]cinnoline-3-carboxylate] | 0 (0=0%) | 0 (0=0%) | 0 (0=0%) | 1 (1=10-20%) | 4 (4=61-80%) | 3 (3=41-60%) | 0 (0=0%) | 0 (0=0%) | 4 (4=61-80%) | 0 (0=0%) | 0 (0=0%) | 5 (5=81-100%) |
| CS(=O)(=O)c1cccc2c1c(=O)c(C(=O)OCCCCOCc1ccccc1)nn2-c1ccc(OC(F)(F)F)cc1 [Compound P89, 4-benzyloxybutyl 5-methylsulfonyl-4-oxo-1-[4-(trifluoromethoxy)phenyl]cinnoline-3-carboxylate] | 0 (0=0%) | 0 (0=0%) | 0 (0=0%) | 0 (0=0%) | 4 (4=61-80%) | 3 (3=41-60%) | 0 (0=0%) | 0 (0=0%) | 4 (4=61-80%) | 0 (0=0%) | 0 (0=0%) | 4 (4=61-80%) |
| CCCCCCCCSC(=O)c1nn(-c2ccc(OC(F)(F)F)cc2)c2cccc(S(C)(=O)=O)c2c1=O [Compound P90, S-octyl 5-methylsulfonyl-4-oxo-1-[4-(trifluoromethoxy)phenyl]cinnoline-3-carbothioate] | 0 (0=0%) | 0 (0=0%) | 1 (1=10-20%) | 0 (0=0%) | 4 (4=61-80%) | 3 (3=41-60%) | 1 (1=10-20%) | 0 (0=0%) | 3 (3=41-60%) | 0 (0=0%) | 0 (0=0%) | 4 (4=61-80%) |
| CC(C)CCSC(=O)c1nn(-c2ccc(OC(F)(F)F)cc2)c2cccc(S(C)(=O)=O)c2c1=O [Compound P91, S-isopentyl 5-methylsulfonyl-4-oxo-1-[4-(trifluoromethoxy)phenyl]cinnoline-3-carbothioate] | 0 (0=0%) | 0 (0=0%) | 1 (1=10-20%) | 1 (1=10-20%) | 4 (4=61-80%) | 3 (3=41-60%) | 1 (1=10-20%) | 0 (0=0%) | 3 (3=41-60%) | 0 (0=0%) | 0 (0=0%) | 4 (4=61-80%) |
| CS(=O)(=O)c1cccc2c1c(=O)c(C(=O)SCCCc1ccccc1)nn2-c1ccc(OC(F)(F)F)cc1 [Compound P92, S-(3-phenylpropyl) 5-methyslulfonyl-4-oxo-1-[4-(trifluoromethoxy)phenyl]cinnoline-3-carbothioate] | 0 (0=0%) | 0 (0=0%) | 2 (2=21-40%) | 2 (2=21-40%) | 3 (3=41-60%) | 3 (3=41-60%) | 1 (1=10-20%) | 1 (1=10-20%) | 1 (1=10-20%) | 1 (1=10-20%) | 1 (1=10-20%) | 3 (3=41-60%) |
